Reference: patent US20110105623A1 (Biogenic Innovations, LLC, priority 2009, published 2011)

Tests used:
Assay type in all cases: cell-based
Escherichia coli [1] = experiment: USP AET, MSM in TSB; parameters: key: Colonies too numerous to count (TNTC); settings: 48 hrs
Description: (§1) Compounds or formulated products having antimicrobial activity may be evaluated with the United States Pharmacopeia (USP) Antimicrobial Effectiveness Test (AET). The AET involves the addition of specified microorganisms (Candida albicans, Aspergillus niger, Escherichia coli, Pseudomonas aeruginosa and Staphylococcus aureus) directly to a test product at relatively high concentrations to simulate contamination. The product is held for one month, with weekly analysis of microorganism levels. Depending on the route of administration of a product, satisfaction of the AET generally requires a 1 to 3 log reduction in bacteria from initial levels, which should occur in one to two weeks, with no further increase in bacteria after two weeks. For yeast and mold, no increase from the initial inoculums level is permitted.
(§2) Inoculations were made using Candida albicans, Aspergillus niger, Escherichia coli, Pseudomonas aeruginosa and Staphylococcus aureus. Tryptic soy broth (TSB) was used as the culturing media. […] The inoculated media was held for one month, during which time the added microorganisms were enumerated weekly to determine if they were growing, dying off, or remaining near the initial inoculation level. Data points were measured in triplicate at 48 hours, 3, 5, 14, 20, 28, and 30 days. The acceptance criteria for antimicrobial effectiveness are described in detail in the USP, herein incorporated by reference.

Pseudomonas aeruginosa = experiment: USP AET, MSM in TSB; parameters: key: Colonies too numerous to count (TNTC); settings: 48 hrs
Description: as §1, §2

[2] = system: Escherichia coli (ATCC strain 8739); experiment: Growth profile in sterile/non-sterile MSM media, streaked on MacConkey agar; settings: 5-16% MSM
Protocol: Tubes were incubated at 25° C.

Escherichia coli [3] = experiment: USP <51> AET in cosmetic cream/composition; settings: for AET microorganism count: 48 hrs-28 days; for Log Reduction from Initial Microorganism Inoculum: 14, 28 Days
Chlorella minutissima = experiment: Algal growth by percent transmittance at 750 nm
Protocol: Two species of Chlorella were examined for growth—Chlorella sorokiniana a freshwater species and Chlorella minutissima a marine species. […] Growth was measured on day 0, 1, 2, 3, 4, 5, 6, 7, 8, 9 and 10. […] The following media were purchased from UTEX Culture Collection of Algae: Enriched Salt Water Medium and Volvox Dextrose Medium.
The algae were grown for 48 hours in the appropriate medium. The initial suspension was enumerated for each alga and is referred to as the starting inoculums. Chlorella sorokiniana was at 381 million cells per milliliter and Chlorella minutissima was at 19 million cells per milliliter. One milliliter of the algal solution was placed into 9 mLs of medium and mixed by vortexing. […] The tube of algae and MSM were incubated at room temperature with exposure to sunlight. […] Each dilution of MSM for each organism was set up in and analyzed in triplicate for each time interval measured. The samples were measured by percent transmittance on a UV/VIS spectrophotometer at wavelength 750 nm. The medium stock was tested for percent transmittance background levels at every time interval were measured. The lower percent transmittance indicated a higher growth factor.

Methylsulfonylmethane [MSM]
AET microorganism count (Escherichia coli [1]; 1:100 dilution of MSM): TNTC | AET microorganism count (Escherichia coli [1]; 1:1000 dilution of MSM): TNTC | AET microorganism count (Pseudomonas aeruginosa; 1:100 dilution of MSM): TNTC | AET microorganism count (Pseudomonas aeruginosa; 1:1000 dilution of MSM): TNTC | Growth profile of E. coli ([2]; 24 hours, NS (sterile saline + non-sterile MSM), 8% MSM): Heavy | Growth profile of E. coli ([2]; 24 hours, NS (sterile saline + non-sterile MSM), 12% MSM): Moderate | Growth profile of E. coli ([2]; 24 hours, NSA (saline + MSM, then sterilized), 8% MSM): Heavy | Growth profile of E. coli ([2]; 24 hours, NSA (saline + MSM, then sterilized), 12% MSM): Moderate | Growth profile of E. coli ([2]; 24 hours, TSB (sterile TSB + non-sterile MSM), 8% MSM): Heavy | Growth profile of E. coli ([2]; 24 hours, TSB (sterile TSB + non-sterile MSM), 10% MSM): Moderate | Growth profile of E. coli ([2]; 24 hours, TSB (sterile TSB + non-sterile MSM), 11% MSM): Few | Growth profile of E. coli ([2]; 24 hours, TSBA (TSB + MSM, then sterilized), 8% MSM): Heavy | Growth profile of E. coli ([2]; 24 hours, TSBA (TSB + MSM, then sterilized), 10% MSM): Moderate | Growth profile of E. coli ([2]; 24 hours, TSBA (TSB + MSM, then sterilized), 11% MSM): Few | Growth profile of E. coli ([2]; 48 hours, NS, 8% MSM): Heavy | Growth profile of E. coli ([2]; 48 hours, NS, 12% MSM): Moderate | Growth profile of E. coli ([2]; 48 hours, NSA, 8% MSM): Heavy | Growth profile of E. coli ([2]; 48 hours, NSA, 12% MSM): Moderate | Growth profile of E. coli ([2]; 48 hours, TSB, 8% MSM): Heavy | Growth profile of E. coli ([2]; 48 hours, TSB, 11% MSM): Moderate | Growth profile of E. coli ([2]; 48 hours, TSB, 12% MSM): Few | Growth profile of E. coli ([2]; 48 hours, TSBA, 8% MSM): Heavy | Growth profile of E. coli ([2]; 48 hours, TSBA, 11% MSM): Moderate | Growth profile of E. coli ([2]; 48 hours, TSBA, 12% MSM): Few | Growth profile of E. coli ([2]; 72 hours, NS, 8% MSM): Heavy | Growth profile of E. coli ([2]; 72 hours, NS, 12% MSM): Moderate | Growth profile of E. coli ([2]; 72 hours, NSA, 8% MSM): Heavy | Growth profile of E. coli ([2]; 72 hours, NSA, 12% MSM): Moderate | Growth profile of E. coli ([2]; 72 hours, TSB, 8% MSM): Heavy | Growth profile of E. coli ([2]; 72 hours, TSB, 11% MSM): Moderate | Growth profile of E. coli ([2]; 72 hours, TSB, 12% MSM): Few | Growth profile of E. coli ([2]; 72 hours, TSBA, 8% MSM): Heavy | Growth profile of E. coli ([2]; 72 hours, TSBA, 11% MSM): Moderate | Growth profile of E. coli ([2]; 72 hours, TSBA, 12% MSM): Few | AET microorganism count (Escherichia coli [3]; 10% MSM in Preservative Free Cosmetic Composition #1, 48 hours after inoculation): 5.4 × 10^4 | AET microorganism count (Escherichia coli [3]; 10% MSM in Preservative Free Cosmetic Composition #1, 7 days after inoculation): <10 | AET microorganism count (Escherichia coli [3]; 10% MSM in cosmetic cream without preservative): <10 | Log Reduction from Initial Microorganism Inoculum (Escherichia coli [3]; 10% MSM in preservative-free jojoba cream): 5.7 log | Log Reduction from Initial Microorganism Inoculum (Escherichia coli [3]; 10% MSM, Composition #1): 5.8 log | Log Reduction from Initial Microorganism Inoculum (Escherichia coli [3]; 10% MSM, Composition #2): 5.8 log | Growth, percent transmittance at 750 nm (Chlorella minutissima; MSM 0.5%, Sample Day 0): 93.5% | Growth, percent transmittance at 750 nm (Chlorella minutissima; MSM 0.5%, Sample Day 1): 70.1% | Growth, percent transmittance at 750 nm (Chlorella minutissima; MSM 0.5%, Sample Day 2): 45.4% | Growth, percent transmittance at 750 nm (Chlorella minutissima; MSM 0.5%, Sample Day 3): 32.1% | Growth, percent transmittance at 750 nm (Chlorella minutissima; MSM 0.5%, Sample Day 4): 27.6% | Growth, percent transmittance at 750 nm (Chlorella minutissima; MSM 0.5%, Sample Day 5): 26.6% | Growth, percent transmittance at 750 nm (Chlorella minutissima; MSM 0.5%, Sample Day 6): 25.1% | Growth, percent transmittance at 750 nm (Chlorella minutissima; MSM 0.5%, Sample Day 7): 23.6% | Growth, percent transmittance at 750 nm (Chlorella minutissima; MSM 0.5%, Sample Day 8): 22.8% | Growth, percent transmittance at 750 nm (Chlorella minutissima; MSM 0.5%, Sample Day 9): 20.4% | Growth, percent transmittance at 750 nm (Chlorella minutissima; MSM 0.5%, Sample Day 10): 18.9% | Growth, percent transmittance at 750 nm (Chlorella minutissima; MSM 1.0%, Sample Day 0): 91.1% | Growth, percent transmittance at 750 nm (Chlorella minutissima; MSM 1.0%, Sample Day 1): 80.5% | Growth, percent transmittance at 750 nm (Chlorella minutissima; MSM 1.0%, Sample Day 2): 40.0% | Growth, percent transmittance at 750 nm (Chlorella minutissima; MSM 1.0%, Sample Day 3): 31.0% | Growth, percent transmittance at 750 nm (Chlorella minutissima; MSM 1.0%, Sample Day 4): 27.9% | Growth, percent transmittance at 750 nm (Chlorella minutissima; MSM 1.0%, Sample Day 5): 26.5% | Growth, percent transmittance at 750 nm (Chlorella minutissima; MSM 1.0%, Sample Day 6): 25.4% | Growth, percent transmittance at 750 nm (Chlorella minutissima; MSM 1.0%, Sample Day 7): 24.4% | Growth, percent transmittance at 750 nm (Chlorella minutissima; MSM 1.0%, Sample Day 8): 23.7% | Growth, percent transmittance at 750 nm (Chlorella minutissima; MSM 1.0%, Sample Day 9): 21.0% | Growth, percent transmittance at 750 nm (Chlorella minutissima; MSM 1.0%, Sample Day 10): 19.4% | Growth, percent transmittance at 750 nm (Chlorella minutissima; MSM 5.0%, Sample Day 0): 68.9% | Growth, percent transmittance at 750 nm (Chlorella minutissima; MSM 5.0%, Sample Day 1): 87.4% | Growth, percent transmittance at 750 nm (Chlorella minutissima; MSM 5.0%, Sample Day 2): 76.5% | Growth, percent transmittance at 750 nm (Chlorella minutissima; MSM 5.0%, Sample Day 3): 62.0% | Growth, percent transmittance at 750 nm (Chlorella minutissima; MSM 5.0%, Sample Day 4): 52.9% | Growth, percent transmittance at 750 nm (Chlorella minutissima; MSM 5.0%, Sample Day 5): 52.2% | Growth, percent transmittance at 750 nm (Chlorella minutissima; MSM 5.0%, Sample Day 6): 50.7% | Growth, percent transmittance at 750 nm (Chlorella minutissima; MSM 5.0%, Sample Day 7): 51.0% | Growth, percent transmittance at 750 nm (Chlorella minutissima; MSM 5.0%, Sample Day 8): 51.9% | Growth, percent transmittance at 750 nm (Chlorella minutissima; MSM 5.0%, Sample Day 9): 47.1% | Growth, percent transmittance at 750 nm (Chlorella minutissima; MSM 5.0%, Sample Day 10): 44.1% | Growth, percent transmittance at 750 nm (Chlorella minutissima; MSM 10.0%, Sample Day 0): 49.6% | Growth, percent transmittance at 750 nm (Chlorella minutissima; MSM 10.0%, Sample Day 1): 49.2% | Growth, percent transmittance at 750 nm (Chlorella minutissima; MSM 10.0%, Sample Day 2): 50.8% | Growth, percent transmittance at 750 nm (Chlorella minutissima; MSM 10.0%, Sample Day 3): 51.9% | Growth, percent transmittance at 750 nm (Chlorella minutissima; MSM 10.0%, Sample Day 4): 52.0% | Growth, percent transmittance at 750 nm (Chlorella minutissima; MSM 10.0%, Sample Day 5): 51.9% | Growth, percent transmittance at 750 nm (Chlorella minutissima; MSM 10.0%, Sample Day 6): 54.9% | Growth, percent transmittance at 750 nm (Chlorella minutissima; MSM 10.0%, Sample Day 7): 56.1% | Growth, percent transmittance at 750 nm (Chlorella minutissima; MSM 10.0%, Sample Day 8): 58.6% | Growth, percent transmittance at 750 nm (Chlorella minutissima; MSM 10.0%, Sample Day 9): 41.4% | Growth, percent transmittance at 750 nm (Chlorella minutissima; MSM 10.0%, Sample Day 10): 36.7% | Growth, percent transmittance at 750 nm (Chlorella minutissima; MSM 20.0%, Sample Day 0): 30.0% | Growth, percent transmittance at 750 nm (Chlorella minutissima; MSM 20.0%, Sample Day 1): 33.8% | Growth, percent transmittance at 750 nm (Chlorella minutissima; MSM 20.0%, Sample Day 2): 51.1% | Growth, percent transmittance at 750 nm (Chlorella minutissima; MSM 20.0%, Sample Day 3): 54.8% | Growth, percent transmittance at 750 nm (Chlorella minutissima; MSM 20.0%, Sample Day 4): 57.3% | Growth, percent transmittance at 750 nm (Chlorella minutissima; MSM 20.0%, Sample Day 5): 57.5% | Growth, percent transmittance at 750 nm (Chlorella minutissima; MSM 20.0%, Sample Day 6): 57.4% | Growth, percent transmittance at 750 nm (Chlorella minutissima; MSM 20.0%, Sample Day 7): 57.1% | Growth, percent transmittance at 750 nm (Chlorella minutissima; MSM 20.0%, Sample Day 8): 55.8% | Growth, percent transmittance at 750 nm (Chlorella minutissima; MSM 20.0%, Sample Day 9): 45.1% | Growth, percent transmittance at 750 nm (Chlorella minutissima; MSM 20.0%, Sample Day 10): 30.2% | Growth, percent transmittance at 750 nm (Chlorella minutissima; MSM […], Sample Day 0): 82.8% | Growth, percent transmittance at 750 nm (Chlorella minutissima; MSM […], Sample Day 1): 75.1% | Growth, percent transmittance at 750 nm (Chlorella minutissima; MSM […], Sample Day 2): 59.5% | Growth, percent transmittance at 750 nm (Chlorella minutissima; MSM […], Sample Day 3): 45.4% | Growth, percent transmittance at 750 nm (Chlorella minutissima; MSM […], Sample Day 4): 33.6% | Growth, percent transmittance at 750 nm (Chlorella minutissima; MSM […], Sample Day 5): 32.4% | Growth, percent transmittance at 750 nm (Chlorella minutissima; MSM […], Sample Day 6): 30.0% | Growth, percent transmittance at 750 nm (Chlorella minutissima; MSM […], Sample Day 7): 28.6% | Growth, percent transmittance at 750 nm (Chlorella minutissima; MSM […], Sample Day 8): 27.7% | Growth, percent transmittance at 750 nm (Chlorella minutissima; MSM […], Sample Day 9): 23.3% | Growth, percent transmittance at 750 nm (Chlorella minutissima; MSM […], Sample Day 10): 21.1%
